The target in assay [1] is T1, first bromodomain (BrD1) of human BRD4 (Homo sapiens, UniProt O60885).
T1 construct: the first bromodomain (BrD1) of human BRD4; poly-His (cleaved yes); made in house
Kind of assay: Fluorescence anisotropy binding assay (competition with FITC-labeled MS417 probe). Conditions: FITC-MS417 probe 80 nM, PBS pH 7.4, 1 hour, 25° C., read-out: BRD4_1 IC50. The procedure:
Fluorescence Anisotropy Binding Assay
Expression and purification of the first bromodomain (BrD1) of human BRD4 in poly-His tag form was performed using a procedure described in the literature [See Zeng et al. Structure 16, 643-652 (2008) and Zhang et al., J Biol Chem 287, 28840-28851 (2012).] The protein was purified by using affinity chromatography on a nickel-IDA column (Invitrogen), followed by the removal of poly-His tag by thrombin cleavage.
Binding affinity of the newly synthesized compounds to the BRD4 BrD1 was assessed in a fluorescence anisotropy assay using a fluorescein isothiocyanate (FITC)-labeled MS417 as an assay probe (Zhang et al. 2008 op.cit.). Competition binding was performed with a BrD protein (0.25 to 1 μM) and the fluorescent probe (80 nM), and increasing concentration of unlabeled competing ligand in a PBS buffer (pH 7.4) in total volume of 80 μL. Measurements were obtained after 1 hour incubation of the fluorescent ligand and the protein at 25° C. with Safire 2 microplate reader (Tecan). In the assay, fluorescent ligand concentration was ≦2Kd, and protein concentration was set at which 50-80% of fluorescent ligand is bound. Dissociation constant of a competing ligand was calculated with the correction to Cheng-Prussoff equation introduced by Nicolovska-Coleska and colleagues [Nikolovska-Coleska, Z. et al., Anal Biochem 332, 261-273 (2004). Assuming one-site competitive binding model, the equation used to calculate Ki's from IC50 values recovered from fitting data using Prism:
[formula] where [I50] is the concentration of free inhibitor at 50% inhibition, [L50], the concentration of free labeled ligand at 50% inhibition, and [P0], concentration of free protein at 0% inhibition. Note that Kd for each protein-probe pair is the limit of resolvable Ki in a competition assay.
In general terms: Fluorescence polarisation rises when a labelled molecule tumbles more slowly, as on binding a larger partner.

The next assay concerns the target T2, BRD4_2 (Homo sapiens, UniProt O60885).
T2 construct: contains two tandem bromodomains (BrD1 and BrD2)
Kind of assay: Fluorescence anisotropy binding assay (competition with FITC-labeled MS417 probe), BRD4_2. The note with it: FITC-MS417 probe 80 nM, PBS pH 7.4, 1 hour, 25° C.

Consider `COC(=O)c1ccc(NC2=CC(=O)CC2)cc1` [Example 01-1], for which the IC50 (in assay [1]; on BRD4_2) was 1 to 10 µM throughout.

For `NC(=O)c1ccc(NC2=CC(=O)CC2)cc1` [Example 01-2], the IC50 (in assay [1]; on BRD4_2) was 1 to 10 µM throughout.

On to `CC1=C(Nc2cccc(C(=O)O)c2)CCC1=O` [Example 01-3], for which the IC50 was greater than 10 µM in assay [1] and 1 to 10 µM at BRD4_2.

With `COC(=O)c1cccc(NC2=C(C)C(=O)CC2)c1` [Example 01-4], the IC50 was 1 to 10 µM in assay [1] and greater than 10 µM on BRD4_2.

In the case of `CC1=C(Nc2ccc(S(N)(=O)=O)cc2)CCC1=O` [Example 01-6], the IC50 (in assay [1]; at BRD4_2) was greater than 10 µM in each case.

For the compound `CC1=C(Nc2ccc(C#N)cc2)CCC1=O` [Example 01-7], the 50% inhibitory concentration (IC50) (in assay [1]; at BRD4_2) was greater than 10 µM throughout.

Consider `CC(=O)c1ccc(NC2=C(C)C(=O)CC2)cc1` [Example 01-9], for which the IC50 is 1 to 10 µM in assay [1] and greater than 10 µM on BRD4_2.

In the case of `COC(=O)c1ccc(NC2=C(C)C(=O)CC2)c(Cl)c1` [Example 01-11, methyl 3-chloro-4((2-methyl-3-oxocyclopent-1-en-1-yl)amino)benzoate], the IC50 (in assay [1]; on BRD4_2) was 1 to 10 µM in each case.

On to `COC(=O)c1ccccc1NC1=C(C)C(=O)CC1` [Example 01-19, methyl 2-((2-methyl-3-oxocyclopent-1-en-1-yl)amino)benzoate], for which the 50% inhibitory concentration (IC50) (in assay [1]; on BRD4_2) was greater than 10 µM throughout.

For the compound `CC1=C(Nc2ccc(S(=O)(=O)Nc3ccccn3)cc2)CCC1=O` [Example 01-31, 4-((2-methyl-3-oxocyclopent-1-en-1-yl)amino)-N-(pyridin-2-yl)benzenesulfonamide], the IC50 (in assay [1]; at BRD4_2) was 1 to 10 µM in each case.

Turning to `CC1=C(NC2CCN(C(=O)OC(C)(C)C)CC2)CCC1=O` [Example 01-32, tert-Butyl 4-((2-methyl-3-oxocyclopent-1-en-1-yl)amino)piperidine-1-carboxylate], the IC50 (in assay [1]; at BRD4_2) was greater than 10 µM throughout.

For `CC1=C(N[C@H]2CC[C@H](C(=O)O)CC2)CCC1=O` [Example 01-33, trans-(1R,4R)-4-((2-methyl-3-oxocyclopent-1-en-1-yl)amino)cyclo6hexane-carboxylic acid], the IC50 (in assay [1]; at BRD4_2) was greater than 10 µM each time.

With `CC1=C(N[C@H]2CC[C@@H](C(=O)O)CC2)CCC1=O` [Example 01-34, cis-(1S,4S)-4-((2-methyl-3-oxocyclopent-1-en-1-yl)amino)cyclohexanecarboxylic acid], the 50% inhibitory concentration (IC50) (in assay [1]; at BRD4_2) was greater than 10 µM throughout.

For `CC1=C(Nc2cccc(S(N)(=O)=O)c2)CCC1=O` [Example 01-45, 3((2-methyl-3-oxocyclopent-1-en-1-yl)amino)benzenesulfonamide], the concentration for half-maximal inhibition (IC50) (in assay [1]; at BRD4_2) was 1 to 10 µM each time.

Turning to `CC1=C(Nc2cc(S(N)(=O)=O)ccc2Cl)CCC1=O` [Example 01-46, 4-chloro-3-((2-methyl-3-oxocyclopent-1-en-1-yl)amino)benzene-sulfonamide], the IC50 (in assay [1]; at BRD4_2) was 1 to 10 µM throughout.

As to `CC1=C(Nc2cccc(N)c2Cl)CCCC1=O` [Example 02-11, 3-((3-amino-2-chlorophenyl)amino)-2-methylcyclohex-2-enone], the IC50 was 1 to 10 µM in assay [1] and greater than 10 µM at BRD4_2.

As to `CC1=C(Nc2ccc(N)cc2Cl)CCC1=O` [Example 02-14, 3-((4-amino-2-chlorophenyl)amino)-2-methylcyclopent-2-enone], the IC50 (in assay [1]; on BRD4_2) was 1 to 10 µM in each case.

As for `CC1=C(Nc2ccc(C(=O)Nc3ccccc3)cc2)CCC1=O` [Example 03-1], the IC50 (in assay [1]; on BRD4_2) was 1 to 10 µM in each case.

`CC1=C(Nc2ccc(C(=O)N(C)c3ccccc3)cc2)CCC1=O` [Example 03-2]: the IC50 (in assay [1]; on BRD4_2) was greater than 10 µM each time.

With `COc1ccc(NC(=O)c2ccc(NC3=C(C)C(=O)CC3)cc2)cc1` [Example 03-6], the IC50 (in assay [1]; at BRD4_2) was 1 to 10 µM throughout.

Take `CC1=C(Nc2ccc(C(=O)Nc3ccc(C)cc3)cc2)CCC1=O` [Example 03-7]: the 50% inhibitory concentration (IC50) (in assay [1]; at BRD4_2) was 1 to 10 µM throughout.

For `CC1=C(Nc2ccc(C(=O)Nc3cccc(C)c3)cc2)CCC1=O` [Example 03-9], the half-maximal inhibitory concentration (IC50) (in assay [1]; at BRD4_2) was 1 to 10 µM each time.

As for `COc1ccccc1NC(=O)c1ccc(NC2=C(C)C(=O)CC2)cc1` [Example 03-10, N-(2-methoxyphenyl)-4-((2-methyl-3-oxocyclopent-1-en-1-yl)amino)benzamide], the IC50 (in assay [1]; on BRD4_2) was 1 to 10 µM each time.

As to `COc1cccc(NC(=O)c2ccc(NC3=C(C)C(=O)CC3)cc2)c1` [Example 03-11, N-(3-methoxyphenyl)-4-((2-methyl-3-oxocyclopent-1-en-1-yl)amino)benzamide], the IC50 in assay [1] was 1 to 10 µM; at BRD4_2 it was greater than 10 µM.

As to `CC1=C(Nc2ccc(C(=O)Nc3cccc4ccccc34)cc2)CCC1=O` [Example 03-16, 4-((2-methyl-3-oxocyclopent-1-en-1-yl)amino)-N-(naphthalen-1-yl)benzamide], the IC50 (in assay [1]; on BRD4_2) was 1 to 10 µM throughout.

For the compound `CC1=C(Nc2ccc(C(=O)NCc3ccccc3)cc2)CCC1=O` [Example 03-18, N-benzyl-4-((2-methyl-3-oxocyclopent-1-en-1-yl)amino)benzamide], the IC50 (in assay [1]; at BRD4_2) was 1 to 10 µM throughout.

Turning to `CC1=C(Nc2ccc(C(=O)NC3CCCCC3)cc2)CCC1=O` [Example 03-19, N-cyclohexyl-4-((2-methyl-3-oxocyclopent-1-en-1-yl)amino)benzamide], the IC50 (in assay [1]; on BRD4_2) was 1 to 10 µM each time.

For the compound `CC1=C(Nc2ccc(C(=O)N(C)C)cc2)CCC1=O` [Example 03-20, N,N-dimethyl-4-((2-methyl-3-oxocyclopent-1-en-1-yl)amino)benzamide], the IC50 (in assay [1]; at BRD4_2) was greater than 10 µM in each case.

As to `CC1=C(Nc2cccc(C(=O)Nc3ccccc3)c2)CCC1=O` [Example 03-23, 3((2-methyl-3-oxocyclopent-1-en-1-yl)amino)-N-phenylbenzamide], the IC50 (in assay [1]; on BRD4_2) was 1 to 10 µM throughout.

In the case of `CC1=C(Nc2cccc(C(=O)NC3CCCCC3)c2)CCC1=O` [Example 04-1], the IC50 (in assay [1]; at BRD4_2) was 1 to 10 µM in each case.

As for `CC1=C(Nc2cccc(C(=O)Nc3cccc4ccccc34)c2)CCC1=O` [Example 04-2], the IC50 (in assay [1]; at BRD4_2) was 1 to 10 µM each time.

As to `CC1=C(Nc2cccc(C(=O)Nc3ccncc3)c2)CCC1=O` [Example 04-3], the IC50 in assay [1] is 1 to 10 µM; on BRD4_2 it was greater than 10 µM.

With `COc1ccc(NC(=O)c2cccc(NC3=C(C)C(=O)CC3)c2)cc1` [Example 04-4], the IC50 (in assay [1]; on BRD4_2) was 1 to 10 µM throughout.

Turning to `CC1=C(Nc2cccc(C(=O)Nc3ccccc3C)c2)CCC1=O` [Example 04-5], the IC50 (in assay [1]; at BRD4_2) was 1 to 10 µM in each case.

Consider `CC1=C(Nc2cccc(C(=O)Nc3cccc(C)c3)c2)CCC1=O` [Example 04-6], for which the IC50 in assay [1] was 1 to 10 µM; at BRD4_2 it was greater than 10 µM.

As for `CC1=C(Nc2cccc(C(=O)Nc3ccc(C)cc3)c2)CCC1=O` [Example 04-7], the figures for the IC50 (in assay [1]; at BRD4_2) were 1 to 10 µM and greater than 10 µM, respectively.

Take `CC1=C(Nc2cccc(C(=O)Nc3ccccc3F)c2)CCC1=O` [Example 04-8]: the half-inhibitory concentration (IC50) (in assay [1]; at BRD4_2) was 1 to 10 µM each time.

As for `CNC(=O)c1ccc(NC2=C(C)C(=O)CC2)c(Cl)c1` [Example 04-13, 3-chloro-N-methyl-4-((2-methyl-3-oxocyclopent-1-en-1-yl)amino)benzamide], the IC50 (in assay [1]; at BRD4_2) was 1 to 10 µM each time.

As to `CC1=C(Nc2ccc(C(=O)NC3CCCCC3)cc2Cl)CCC1=O` [Example 04-14, 3-chloro-N-cyclohexyl-4-((2-methyl-3-oxocyclopent-1-en-1-yl)amino)benzamide], the values for the IC50 (in assay [1]; at BRD4_2) were less than 1 µM and 1 to 10 µM, respectively.

`CC1=C(Nc2ccc(C(=O)Nc3ccccc3)cc2Cl)CCC1=O` [Example 04-16, 3-chloro-4-((2-methyl-3-oxocyclopent-1-en-1-yl)amino)-N-phenylbenzamide]: the IC50 (in assay [1]; on BRD4_2) was 1 to 10 µM in each case.

`COc1cccc(NC(=O)c2ccc(NC3=C(C)C(=O)CC3)c(Cl)c2)c1` [Example 04-18, 3-chloro-N-(3-methoxyphenyl)-4-((2-methyl-3-oxocyclopent-1-en-1-yl)amino)benzamide]: the IC50 is less than 1 µM in assay [1] and 1 to 10 µM at BRD4_2.

As a reminder, the IC50 is the concentration that inhibits the measured activity by half.

The values above are taken from patent publication US9884806B2, “Cyclic vinylogous amides as bromodomain inhibitors” (ICAHN SCHOOL OF MEDICINE AT MOUNT SINAI, priority 2013, dated 2018).
